The values that follow come from ChEMBL document CHEMBL4483862, “Open-source discovery of chemical leads for next-generation chemoprotective antimalarials” (2018).

The test system of the assay is Plasmodium berghei. In words: Luciferase/luciferin-expressing antifolate-resistant parasites were used to infect a culture of HepG2 cells that were pre-incubated with compounds. Infected hepatocytes emit light due to the luciferase reaction. Assay results are presented as the percent inhibition of light emission compared to control. […]. The format is functional. As to conditions: sporozoite; for IC90: read-out: LUCIFERASE INFECTION ASSAY - IC90.

pIC50: −log10 of the molar value.

For orientation: pIC50 means −log10 of the IC50, conventionally taken in molar units. Usually IC90 stands for the concentration at which the effect reaches the 90% level. In the case of `COc1ccc(C(=O)NCC(C)(C)SCc2c(C)cc(C)cc2C)cc1`, the IC90 is > 8.88 µM. Also, the negative logarithm of the IC50 (pIC50) (PBLUC_HILL_SLOPE 1.94, PBLUC_R_SQUARED 0.532, read-out: LUCIFERASE INFECTION ASSAY - IC50) was 5.51.

In the case of `Nc1ncc(-c2ccc(-c3ccccc3)cc2F)cc1-c1cncc2ccccc12`, the concentration for an effect of 90% (IC90) is > 8.43 µM. Further, the negative-log IC50 (pIC50) (PBLUC_HILL_SLOPE 1.93, PBLUC_R_SQUARED 0.0355, read-out: LUCIFERASE INFECTION ASSAY - IC50) was < 5.07.

Regarding `Cc1[nH]c2ccccc2c1C(=O)COc1ccc(N(C)S(=O)(=O)c2ccccc2F)cc1`, the IC90 is > 10 µM. The pIC50 (PBLUC_HILL_SLOPE 1.92, PBLUC_R_SQUARED 0.479, read-out: LUCIFERASE INFECTION ASSAY - IC50) was 5.28.

Regarding `COc1cc(-c2nc3ccc(NC(=O)COc4ccccc4)cn3n2)cc(OC)c1OC`, the IC90 was > 10 µM. The negative logarithm of the IC50 (pIC50) (PBLUC_HILL_SLOPE 1.9, PBLUC_R_SQUARED 0.239, read-out: LUCIFERASE INFECTION ASSAY - IC50) is 5.25.

As for `CC(Sc1nnc(-c2ccc(C(C)(C)C)cc2)o1)C(=O)NCc1ccccc1Cl` (centres undefined), the IC90 was > 10 µM. Also, under “PBLUC_HILL_SLOPE 1.93, PBLUC_R_SQUARED 0.876, read-out: LUCIFERASE INFECTION ASSAY - IC50”, the pIC50 is 5.38.

Regarding `CCN(CC)c1ccc(NC(=O)c2c(F)cccc2F)c(N(CC)CC)n1`, the IC90 is > 8.77 µM. Moreover, the pIC50 (PBLUC_HILL_SLOPE 1.91, PBLUC_R_SQUARED 0.469, read-out: LUCIFERASE INFECTION ASSAY - IC50) is 5.26.

For `FC(F)(F)c1c(-c2ccccc2)c2cc(Cl)ccc2n1Cc1ccccc1`, the IC90 was > 8.55 µM. Besides, the pIC50 (PBLUC_HILL_SLOPE 1.92, PBLUC_R_SQUARED 0.0693, read-out: LUCIFERASE INFECTION ASSAY - IC50) is 5.14.

Consider `CC(C)(C)NC(=S)N/N=C/c1ccnc(SCc2ccc(Cl)cc2)n1`, for which the IC90 is > 8.38 µM. Moreover, the negative logarithm of the IC50 (pIC50) (PBLUC_HILL_SLOPE 1.91, PBLUC_R_SQUARED 0.389, read-out: LUCIFERASE INFECTION ASSAY - IC50) was 5.24.

Turning to `O=C(NC(=S)Nc1ccc(Oc2cc(C(F)(F)F)cc(C(F)(F)F)c2)cc1)c1ccccc1`, the 90% effect concentration (IC90) was found to be 4.3 µM. Moreover, where the note is “PBLUC_HILL_SLOPE 1.93, PBLUC_R_SQUARED 0.641, read-out: LUCIFERASE INFECTION ASSAY - IC50”, the pIC50 was 5.86.

As for `Cc1cc(C(=O)Nc2ccc(OCc3ncc(C(F)(F)F)cc3Cl)cc2)no1`, the IC90 was 1.33 µM. Besides, the pIC50 (PBLUC_HILL_SLOPE 1.94, PBLUC_R_SQUARED 0.889, read-out: LUCIFERASE INFECTION ASSAY - IC50) is 6.37.

Turning to `O=C(c1ccccc1)c1ccc(OCC(O)CNC2CCCCCCC2)cc1` (centres undefined), the IC90 is > 10 µM. Further, the pIC50 (PBLUC_HILL_SLOPE 1.94, PBLUC_R_SQUARED 0.684, read-out: LUCIFERASE INFECTION ASSAY - IC50) was 5.20.

With `Cc1csc(CNc2nc(-c3cccnc3)nc3sc(C)c(C)c23)n1`, the 90% effect concentration (IC90) is 5.63 µM. Moreover, the negative logarithm of the IC50 (pIC50) (PBLUC_HILL_SLOPE 1.92, PBLUC_R_SQUARED 0.84, read-out: LUCIFERASE INFECTION ASSAY - IC50) is 5.75.

Turning to `OCCNc1nc(Oc2ccc(-c3ccccc3)cc2)nc2ccccc12`, the IC90 came out at 1.97 µM. Also, under “PBLUC_HILL_SLOPE 1.95, PBLUC_R_SQUARED 0.572, read-out: LUCIFERASE INFECTION ASSAY - IC50”, the pIC50 was 6.19.

Consider `C=CCn1c(C)cc(C(=O)COC(=O)C(O)(c2ccccc2)c2ccccc2)c1C`, for which the concentration for an effect of 90% (IC90) came to 5.78 µM. For the same compound, where the note is “PBLUC_HILL_SLOPE 1.92, PBLUC_R_SQUARED 0.565, read-out: LUCIFERASE INFECTION ASSAY - IC50”, the pIC50 is 5.74.

Turning to `O=C(N/N=C/C1=C(N2CCOCC2)C(=C/c2ccc(Cl)cc2Cl)/CC1)c1ccco1`, the IC90 is 6.76 µM. In addition, under “PBLUC_HILL_SLOPE 1.95, PBLUC_R_SQUARED 0.652, read-out: LUCIFERASE INFECTION ASSAY - IC50”, the pIC50 was 5.66.

As to `Cc1cc(C(=O)N/N=C2\C(=O)Nc3ccccc32)c(C)n1-c1ccc(F)cc1`, the IC90 is > 10 µM. The pIC50 (PBLUC_HILL_SLOPE 1.9, PBLUC_R_SQUARED 0.511, read-out: LUCIFERASE INFECTION ASSAY - IC50) is 5.40.

As for `COc1cc2nc(-c3ccccc3)nc(N3CCN(CCN4CCCC4)CC3)c2cc1OC`, the concentration for an effect of 90% (IC90) was found to be 7.65 µM. For the same compound, the negative-log IC50 (pIC50) (PBLUC_HILL_SLOPE 1.93, PBLUC_R_SQUARED 0.643, read-out: LUCIFERASE INFECTION ASSAY - IC50) is 5.61.

In the case of `Cn1c(N)c(C(=O)CSc2nnc(-c3ccccc3)c(-c3ccccc3)n2)c(=O)n(C)c1=O`, the IC90 was > 10 µM. The pIC50 (PBLUC_HILL_SLOPE 1.94, PBLUC_R_SQUARED 0.495, read-out: LUCIFERASE INFECTION ASSAY - IC50) is 5.43.

`CSc1c(C#N)c(-c2ccc(Cl)cc2)nn1C(=O)C(C)C`: the 90% effect concentration (IC90) is > 10.3 µM. Moreover, the negative logarithm of the IC50 (pIC50) (PBLUC_HILL_SLOPE 1.94, PBLUC_R_SQUARED 0.662, read-out: LUCIFERASE INFECTION ASSAY - IC50) was < 4.99.

As to `CNC(=O)c1nn(CC2CCCCC2)c2c1CC(NC1CCN(Cc3ccccc3)CC1)CC2` (centres undefined), the IC90 was > 7.12 µM. For the setting “PBLUC_HILL_SLOPE 1.91, PBLUC_R_SQUARED 0.276, read-out: LUCIFERASE INFECTION ASSAY - IC50”, the pIC50 is 5.19.

For `CC(=O)n1nc(NCc2cccc(Cl)c2)nc1NCc1cccc(Cl)c1`, the 90% effect concentration (IC90) was > 8.46 µM. The negative logarithm of the IC50 (pIC50) (PBLUC_HILL_SLOPE 1.95, PBLUC_R_SQUARED 0.375, read-out: LUCIFERASE INFECTION ASSAY - IC50) was 5.37.

As for `Fc1ccc(-c2cnn3c(NCCCN4CCOCC4)ccnc23)cc1Cl`, the IC90 was > 8.46 µM. Further, for the setting “PBLUC_HILL_SLOPE 1.9, PBLUC_R_SQUARED 0.489, read-out: LUCIFERASE INFECTION ASSAY - IC50”, the pIC50 was 5.39.

For `COc1ccc2nc(C)cc(NC(C)CCc3ccccc3)c2c1` (centres undefined), the IC90 was > 10 µM. For the same compound, the pIC50 (PBLUC_HILL_SLOPE 1.9, PBLUC_R_SQUARED 0.397, read-out: LUCIFERASE INFECTION ASSAY - IC50) was 5.22.

Take `O=C(Oc1ccc(/C=N/n2cnnc2)cc1)c1ccco1`: the concentration for an effect of 90% (IC90) is > 10 µM. The pIC50 (PBLUC_HILL_SLOPE 1.92, PBLUC_R_SQUARED 0.124, read-out: LUCIFERASE INFECTION ASSAY - IC50) is < 5.00.

For `Cc1cccc(N2CCN(C(=O)c3cc4ccccc4o3)CC2C)c1` (centres undefined), the concentration for an effect of 90% (IC90) was > 10 µM. Also, where the note is “PBLUC_HILL_SLOPE 1.92, PBLUC_R_SQUARED 0.443, read-out: LUCIFERASE INFECTION ASSAY - IC50”, the pIC50 was 5.32.

Regarding `c1ccc(Oc2cccc(-c3ccc4nnc(-c5ccc6c(c5)OCO6)n4c3)c2)cc1`, the IC90 was > 10 µM. Also, under “PBLUC_HILL_SLOPE 1.92, PBLUC_R_SQUARED 0.18, read-out: LUCIFERASE INFECTION ASSAY - IC50”, the pIC50 is 5.08.

For the compound `O=C(Nc1ccc(-n2ccc(C(F)(F)F)n2)cc1)c1cccs1`, the 90% effect concentration (IC90) turned out to be 3.61 µM. For the same compound, the pIC50 (PBLUC_HILL_SLOPE 1.9, PBLUC_R_SQUARED 0.777, read-out: LUCIFERASE INFECTION ASSAY - IC50) was 5.94.
